The values below come from US10561638B2, “Methods for treating dependence” (Biotie Therapies, Inc., priority 2007, dated 2020).

Data set [1] has as its target all other receptors examined. The data set can be described thus: Radioligand filtration binding (Example 19). On the procedure: (§1) The affinity of nepicastat was determined in the bindings assays outlined using standard radioligand filtration binding methods were used. Competition binding data were analyzed by iterative curve fitting to a four parameter logistic equation. Hill coefficients and IC50 were obtained directly. pKi (−log of Ki) of competing ligands were calculated from IC50 values using the Cheng-Prusoff equation.

Data set [2] has as its target alpha1 receptors. Put plainly: Radioligand filtration binding (Example 19). On the procedure:
as §1

For data set [3], the system named is left ventricular [3H] CGP-12177 binding sites. The data set can be described thus: [3H] CGP-12177 saturation binding in left ventricle membranes of treated dogs. As to conditions: 10 mg/kg/day for 4.5 days. Set-up: species or system beagle dogs. On the procedure: Ventricles were homogenized in 50 mM Tris-HCl, 5 mM Na2EDTA buffer (pH 7.4 at 4° C.) using a Polytron P-10 tissue disrupter (setting 10, 2×15 second bursts). Homogenates were centrifuged at 500×g for 10 minutes and the supernatants stored on ice. The pellets were washed by resuspension and centrifugation at 500×g and the supernatants combined. The combined supernatants were centrifuged at 48,000×g for 20 minutes. The pellets were washed by resuspension and centrifugation once in homogenizing buffer and twice in 50 mM Tris-HCl, 0.5 mM EDTA buffer (pH 7.4 at 4° C.). Membranes were stored at −70° C. until required. Saturation experiments were conducted using [^3H] CGP-12177 in buffer containing 50 mM Tris-HCl, 0.5 mM EDTA (pH 7.4 at 32° C.). Non-specific binding was defined by 10 μM isoproterenol. Total bound, non-specific bound and total count tubes were set up for eight concentrations of [^3H] […] Aquasol scintillation fluid was added to each vial and radioactivity determined by liquid scintillation counting. Saturation binding isotherms were analyzed after first converting total ligand concentrations to free ligand concentrations (total−bound=free). […] Tissue catecholamine levels were analyzed by comparing nepicastat-treated groups with the placebo (control) treated groups. […] Additionally, a linear orthogonal contrast was calculated for all three doses within the context of a one-way ANOVA. […]

For data set [4], the target named is acyl CoA-cholesterol acyl transferase. Put plainly: Enzyme selectivity assay. Type of data set: biochemical. On the procedure:
(§2) The activity of nepicastat at twelve selected enzymes and receptors was determined using established assays. Binding data were analyzed by iterative curve-fitting to a four parameter logistic equation. Ki values were calculated from IC50 values using the Cheng-Prusoff equation. Enzyme inhibitory activity was expressed as IC50 (concentration required to produce 50% inhibition of enzyme activity).
(§3) The activity of nepicastat at eleven different enzymes was determined using established assays. The affinity of nepicastat for thirteen selected receptors was determined by radioligand binding assays using standard filtration techniques and membrane preparations. Binding data were analyzed by iterative curve fitting to a four parameter logistic equation. Ki values were calculated using the Cheng-Prusoff equation.

In data set [5] the target is phosphodiesterase III. Put plainly: Enzyme selectivity assay. Type of data set: biochemical. As for the experimental part: as §2, §3
Data set [6] deals with HMG-CoA reductase (Homo sapiens, UniProt P04035). Put plainly: Enzyme selectivity assay. The format is biochemical. On the procedure: as §2, §3
The target in data set [7] is Ca2+/calmodulin protein kinase II. The data set can be described thus: Enzyme selectivity assay. Type of data set: biochemical. As for the experimental part:
as §2, §3

Data set [8] has as its target protein kinase C. Put plainly: Enzyme selectivity assay. Type of data set: biochemical. On the procedure: as §2, §3
The target in data set [9] is tyrosine hydroxylase (Homo sapiens, UniProt P07101). Put plainly: Enzyme selectivity assay. Type of data set: biochemical. On the procedure: as §2, §3
For data set [10], the target named is phospholipase A2. The data set can be described thus: Enzyme selectivity assay. Type of data set: biochemical. On the procedure: as §2, §3
Data set [11] addresses neutral endopeptidase (Homo sapiens, UniProt P08473). Put plainly: Enzyme selectivity assay. Type of data set: biochemical. On the procedure: as §2, §3
The target in data set [12] is cyclooxygenase-I (Homo sapiens, UniProt P23219). Put plainly: Enzyme selectivity assay. The format is biochemical. On the procedure:
as §2, §3

Data set [13] deals with acetyl CoA synthetase. The data set can be described thus: Enzyme selectivity assay. The format is biochemical. As for the experimental part: as §2, §3
In data set [14] the target is nitric oxide synthase. The data set can be described thus: Enzyme selectivity assay. The format is biochemical. As for the experimental part:
as §2, §3

Data set [15] has as its system anesthetized SHRs. The data set can be described thus: Acute i.v. treatment of anesthetized SHRs, blood pressure and renal function. The format is in vivo, spontaneously hypertensive rats. As to conditions: 3.0 mg/kg i.v. The text has this: The calculated renal vascular resistance was decreased following dosing. An attempt was made using the DA-1 antagonist SCH-23390 to assess if the renal vasodilator effects of nepicastat were mediated by DA-1 receptors.

Data set [16] has as its system mesenteric artery catecholamines and sympathetically-evoked responses. Put plainly: Anesthetized beagle dogs, 30 mg/kg intraduodenally. The format is in vivo.
Data set [17] relates to aortic contractile response to phenylephrine. Put plainly: Aortic contractile response in vitro to phenylephrine after 21 days treatment. Type of data set: in vivo, spontaneously hypertensive rats. The settings on record: 10 mg/kg p.o. daily for 21 days. An excerpt:
The aortic contractile response in vitro to phenylephrine is impaired in spontaneously hypertensive rats (SHRs) relative to normotensive Wistar-Kyoto rats.

The structures appear in SMILES notation. Where only a bound is given, the exact number is not on record here.

Chain of neutral endopeptidase (P08473 whole entry, species assumed): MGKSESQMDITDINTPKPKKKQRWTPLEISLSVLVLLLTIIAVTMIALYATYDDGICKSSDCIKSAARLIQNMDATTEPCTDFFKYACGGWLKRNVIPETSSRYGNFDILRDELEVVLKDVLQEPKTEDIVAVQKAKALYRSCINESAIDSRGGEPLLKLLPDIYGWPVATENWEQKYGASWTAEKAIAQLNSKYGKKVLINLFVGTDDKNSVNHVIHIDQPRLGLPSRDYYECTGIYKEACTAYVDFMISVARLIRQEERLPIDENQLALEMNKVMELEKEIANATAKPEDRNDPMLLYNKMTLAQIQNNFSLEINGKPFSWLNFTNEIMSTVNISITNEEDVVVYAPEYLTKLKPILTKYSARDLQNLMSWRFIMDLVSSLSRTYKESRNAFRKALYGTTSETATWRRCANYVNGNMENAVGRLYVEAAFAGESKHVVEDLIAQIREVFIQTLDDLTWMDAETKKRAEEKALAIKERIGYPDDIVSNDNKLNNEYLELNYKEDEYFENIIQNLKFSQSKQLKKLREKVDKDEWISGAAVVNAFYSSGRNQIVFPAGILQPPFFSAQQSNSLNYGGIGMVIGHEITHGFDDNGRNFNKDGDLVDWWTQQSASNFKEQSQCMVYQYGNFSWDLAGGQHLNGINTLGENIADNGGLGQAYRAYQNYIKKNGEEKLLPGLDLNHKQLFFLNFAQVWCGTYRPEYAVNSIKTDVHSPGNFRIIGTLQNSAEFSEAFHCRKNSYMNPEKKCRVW
Chain of HMG-CoA reductase (P04035 whole entry, species assumed): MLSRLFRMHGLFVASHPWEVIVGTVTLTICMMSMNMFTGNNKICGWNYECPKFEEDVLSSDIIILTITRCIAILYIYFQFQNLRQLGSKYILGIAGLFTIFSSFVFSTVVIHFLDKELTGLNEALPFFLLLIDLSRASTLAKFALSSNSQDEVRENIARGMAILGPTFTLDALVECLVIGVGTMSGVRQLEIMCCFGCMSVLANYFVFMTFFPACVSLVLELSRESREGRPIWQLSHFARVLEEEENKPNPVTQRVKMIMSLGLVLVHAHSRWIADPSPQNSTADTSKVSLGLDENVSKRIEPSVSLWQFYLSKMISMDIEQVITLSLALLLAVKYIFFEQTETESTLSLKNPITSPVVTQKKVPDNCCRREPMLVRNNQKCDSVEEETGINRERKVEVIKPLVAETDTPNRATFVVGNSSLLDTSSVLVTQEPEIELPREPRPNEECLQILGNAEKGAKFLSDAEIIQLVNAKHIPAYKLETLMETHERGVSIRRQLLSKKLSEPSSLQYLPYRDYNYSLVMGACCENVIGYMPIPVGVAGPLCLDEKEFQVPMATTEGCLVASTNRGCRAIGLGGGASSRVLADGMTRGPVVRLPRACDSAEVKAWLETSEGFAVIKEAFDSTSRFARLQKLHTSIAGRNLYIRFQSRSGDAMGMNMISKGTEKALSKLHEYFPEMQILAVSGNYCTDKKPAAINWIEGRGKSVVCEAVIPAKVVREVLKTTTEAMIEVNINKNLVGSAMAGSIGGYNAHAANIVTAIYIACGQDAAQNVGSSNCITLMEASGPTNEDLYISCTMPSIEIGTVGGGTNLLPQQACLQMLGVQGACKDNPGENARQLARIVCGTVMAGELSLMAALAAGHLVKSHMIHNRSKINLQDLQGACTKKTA
Chain of tyrosine hydroxylase (P07101 whole entry): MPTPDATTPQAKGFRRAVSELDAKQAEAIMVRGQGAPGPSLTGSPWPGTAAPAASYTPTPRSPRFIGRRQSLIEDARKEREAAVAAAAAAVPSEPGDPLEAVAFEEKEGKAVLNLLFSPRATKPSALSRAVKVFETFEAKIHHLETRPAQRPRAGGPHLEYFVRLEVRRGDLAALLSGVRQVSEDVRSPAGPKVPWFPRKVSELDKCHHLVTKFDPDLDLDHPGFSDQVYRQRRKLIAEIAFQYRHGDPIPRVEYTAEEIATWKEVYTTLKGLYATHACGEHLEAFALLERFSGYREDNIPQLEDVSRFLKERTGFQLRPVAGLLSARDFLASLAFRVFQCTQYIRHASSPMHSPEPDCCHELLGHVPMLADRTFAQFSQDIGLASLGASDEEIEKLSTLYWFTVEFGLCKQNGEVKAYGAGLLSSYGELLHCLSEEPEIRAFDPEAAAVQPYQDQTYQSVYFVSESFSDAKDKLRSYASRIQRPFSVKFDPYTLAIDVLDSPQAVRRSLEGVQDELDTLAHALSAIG
Chain of cyclooxygenase-I (P23219 24-599): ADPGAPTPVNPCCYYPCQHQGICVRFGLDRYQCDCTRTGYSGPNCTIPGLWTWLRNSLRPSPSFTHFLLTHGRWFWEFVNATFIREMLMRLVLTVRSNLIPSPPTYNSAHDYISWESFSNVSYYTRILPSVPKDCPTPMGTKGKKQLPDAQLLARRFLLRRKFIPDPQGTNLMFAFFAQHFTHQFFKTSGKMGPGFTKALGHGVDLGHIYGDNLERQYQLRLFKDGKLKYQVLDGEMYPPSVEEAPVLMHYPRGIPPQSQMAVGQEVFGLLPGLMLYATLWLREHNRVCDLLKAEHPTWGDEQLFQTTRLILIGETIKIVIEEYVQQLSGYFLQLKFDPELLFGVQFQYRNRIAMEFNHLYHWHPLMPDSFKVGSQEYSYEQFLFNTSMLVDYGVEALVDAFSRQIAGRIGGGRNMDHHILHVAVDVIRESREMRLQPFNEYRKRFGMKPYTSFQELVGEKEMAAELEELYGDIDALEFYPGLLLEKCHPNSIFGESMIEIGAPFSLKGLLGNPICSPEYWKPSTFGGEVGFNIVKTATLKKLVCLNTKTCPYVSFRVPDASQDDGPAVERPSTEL

Usually pKi stands for the Ki on a negative log10 scale, so that one unit is a factor of ten. The low end stands for a high Ki, the high end for a low Ki. Broadly, the IC50 is the concentration at which inhibition is half-maximal. Read a high IC50 as lower potency. Take `Cl.NCc1c[nH]c(=S)n1[C@H]1CCc2c(F)cc(F)cc2C1` [nepicastat, (S)-5-Aminomethyl-1-(5,7-difluoro-1,2,3,4-tetrahydronaphth-2-yl)-2,3-dihydro-2-thioxo-1H-imidazole hydrochloride]: the pKi in [1] is less than 6.2; in [2], 6.9-6.7. Further, in [3], the “left ventricular binding, treated vs vehicle group” value is recorded as “no difference”. The IC50 in [4], in data set [5], in data set [6], in [7], in data set [8] and in [9] was greater than 10 µM in each case. The IC50 in data set [10], in [11], in [12], in data set [13] and in data set [14] was greater than 10 µM throughout. In addition, the “calculated renal vascular resistance” value in data set [15] was “decreased”. Besides, the “renal blood flow, urine production, sodium and potassium excretion” value in data set [15] is reported as “did not lower renal blood flow or alter urine production or urinary excretion of sodium or potassium”. Moreover, the mean arterial pressure result in [15] (over 3 hours) is given as “decreased mean arterial pressure”. The “responses to renal nerve stimulation and carotid artery occlusion” value in [16] (30 mg/kg intraduodenally, up to 5 hours) is recorded as “did not significantly inhibit”. Also, the mesenteric artery catecholamines entry in [16] (5 hours after 30 mg/kg intraduodenally) was “significant decrease in norepinephrine levels and an increase in the dopamine/norepinephrine ratio”. The “phenylephrine responsiveness of aorta” value in [17] is on record as “restored phenylephrine responsiveness”.
